From patent US10392368B2, “Pyrazolo and triazolo bicyclic compounds as JAK kinase inhibitors” (THERAVANCE BIOPHARMA R&D IP, LLC, priority 2017, dated 2019)
Where two headings read alike, the source gives them in different places.

Experiments:
JAK1 = molecular target: T1, JAK1 (Homo sapiens, UniProt P23458); assay: Biochemical JAK1 kinase assay (LanthaScreen); conditions: for Ki: read-out: JAK 1 (pKi) (converted)
T1 construct: GST; purchased Life Technologies
How it was run: (§1)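 TR-FRET read-out: terbium anti-pSTAT1 (pTyr701) antibody, 2 nM, with 10 mM EDTA quench, emission ratio 520/495 nm. GST-JAK phosphorylates GFP-STAT1 peptide for 1 h at ambient temperature after 1 h compound pre-incubation. pIC50 from dose-response converted to pKi by Cheng-Prusoff.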

JAK2 = molecular target: T2, JAK2 (Homo sapiens, UniProt O60674); assay: Biochemical JAK2 kinase assay (LanthaScreen); conditions: for Ki: read-out: JAK 2 (pKi) (converted)
T2 construct: GST; purchased Life Technologies
Method: (§2) A panel of four LanthaScreen JAK biochemical assays (JAK1, 2, 3 and Tyk2) were carried in a common kinase reaction buffer (50 mM HEPES, pH 7.5, 0.01% Brij-35, 10 mM MgCl2, and 1 mM EGTA). Recombinant GST-tagged JAK enzymes and a GFP-tagged STAT1 peptide substrate were obtained from Life Technologies.
(§3) Serially or discretely diluted compounds were pre-incubated with each of the four JAK enzymes and the substrate in white 384-well microplates (Corning) at ambient temperature for 1 h. ATP was subsequently added to initiate the kinase reactions in 10 μL total volume, with 1% DMSO. […] Kinase reactions were allowed to proceed for 1 hour at ambient temperature before a 10 μL preparation of EDTA (10 mM final concentration) and Tb-anti-pSTAT1 (pTyr701) antibody (Life Technologies, 2 nM final concentration) in TR-FRET dilution buffer (Life Technologies) was added. The plates were allowed to incubate at ambient temperature for 1 h before being read on the EnVision reader (Perkin Elmer).
(§4) For dose-response analysis, percent inhibition data were plotted vs. compound concentrations, and IC50 values were determined from a 4-parameter robust fit model with the Prism software (GraphPad Software). Results were expressed as pIC50 (negative logarithm of IC50) and subsequently converted to pKi (negative logarithm of dissociation constant, Ki) using the Cheng-Prusoff equation.

Tyk2 = molecular target: T3, Tyk2 (Homo sapiens, UniProt P29597); assay: Biochemical Tyk2 kinase assay (LanthaScreen); conditions: for Ki: read-out: Tyk 2 (pKi) (converted)
T3 construct: GST; purchased Life Technologies
Method: as §2
as §3, with “Elmer). Emission ratio signals (520 nm/495 nm) were recorded and utilized to calculate the percent inhibition values based on DMSO and background controls.” for “Elmer).”
as §4

[1] = test system: IL-2 stimulated pSTAT5 in Tall-1 T cells; assay: Cellular JAK3 potency assay: inhibition of IL-2 stimulated pSTAT5 in Tall-1 T cells; format: cell-based, human; conditions: for IC50: Homo sapiens, read-out: Tall-1 (pIC50) (converted)
How it was run: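 Tall-1 human T cells were preincubated with compound for 1 h at 37° C, then stimulated with IL-2 (300 ng/ml final) for 30 min. STAT5 phosphorylation in lysates was read by AlphaLisa bead emission, and IC50 from inhibition curves is given as pIC50 (mean±SD).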

JAK3 = molecular target: T4, JAK3 (Homo sapiens, UniProt P52333); assay: Biochemical JAK3 kinase assay (LanthaScreen); parameters: GST; purchased Life Technologies; conditions: for Ki: read-out: JAK 3 (pKi) (converted)
T4 sequence (P52333 1-1124): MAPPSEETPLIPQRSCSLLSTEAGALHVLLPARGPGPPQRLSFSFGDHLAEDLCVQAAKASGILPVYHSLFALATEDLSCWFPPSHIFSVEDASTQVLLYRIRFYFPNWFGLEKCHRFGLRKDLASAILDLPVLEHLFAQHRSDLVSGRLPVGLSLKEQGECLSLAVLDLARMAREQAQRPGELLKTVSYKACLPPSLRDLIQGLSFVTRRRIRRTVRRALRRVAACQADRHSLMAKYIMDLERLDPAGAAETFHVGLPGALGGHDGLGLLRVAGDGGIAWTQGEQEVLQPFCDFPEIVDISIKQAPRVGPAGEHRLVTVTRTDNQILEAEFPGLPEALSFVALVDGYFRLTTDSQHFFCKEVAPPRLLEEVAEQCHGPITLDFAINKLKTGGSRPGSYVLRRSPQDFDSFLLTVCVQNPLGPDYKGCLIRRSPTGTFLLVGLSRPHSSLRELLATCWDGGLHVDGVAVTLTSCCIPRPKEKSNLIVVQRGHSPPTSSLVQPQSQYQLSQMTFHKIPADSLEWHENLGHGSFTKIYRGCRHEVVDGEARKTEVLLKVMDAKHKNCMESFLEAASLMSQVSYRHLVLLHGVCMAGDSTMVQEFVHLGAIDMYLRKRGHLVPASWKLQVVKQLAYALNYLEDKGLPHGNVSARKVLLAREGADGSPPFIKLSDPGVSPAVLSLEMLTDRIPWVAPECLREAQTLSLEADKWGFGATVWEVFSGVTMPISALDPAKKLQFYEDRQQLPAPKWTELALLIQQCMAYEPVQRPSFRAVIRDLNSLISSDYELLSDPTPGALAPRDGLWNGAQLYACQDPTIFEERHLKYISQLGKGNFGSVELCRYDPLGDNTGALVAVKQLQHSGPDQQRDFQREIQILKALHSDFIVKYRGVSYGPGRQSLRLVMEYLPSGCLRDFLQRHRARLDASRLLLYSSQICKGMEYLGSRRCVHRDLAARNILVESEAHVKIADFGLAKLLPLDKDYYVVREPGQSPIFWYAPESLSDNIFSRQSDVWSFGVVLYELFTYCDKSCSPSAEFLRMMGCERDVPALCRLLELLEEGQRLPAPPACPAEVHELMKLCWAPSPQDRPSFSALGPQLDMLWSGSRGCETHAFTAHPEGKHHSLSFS
How it was run: as §1

[2] = TALL-1, IL-2 stimulated pSTAT5, Tall-1 T cells
[3] = selectivity JAK3 over JAK1, difference of pKi
[4] = TALL-1, IL-2 stimulated pSTAT5 in Tall-1 T cells
[5] = selectivity: difference of pKi JAK3 and pKi JAK1
[6] = IL-2 stimulated pSTAT5 in Tall-1 T cells

T1 sequence (P23458 whole entry): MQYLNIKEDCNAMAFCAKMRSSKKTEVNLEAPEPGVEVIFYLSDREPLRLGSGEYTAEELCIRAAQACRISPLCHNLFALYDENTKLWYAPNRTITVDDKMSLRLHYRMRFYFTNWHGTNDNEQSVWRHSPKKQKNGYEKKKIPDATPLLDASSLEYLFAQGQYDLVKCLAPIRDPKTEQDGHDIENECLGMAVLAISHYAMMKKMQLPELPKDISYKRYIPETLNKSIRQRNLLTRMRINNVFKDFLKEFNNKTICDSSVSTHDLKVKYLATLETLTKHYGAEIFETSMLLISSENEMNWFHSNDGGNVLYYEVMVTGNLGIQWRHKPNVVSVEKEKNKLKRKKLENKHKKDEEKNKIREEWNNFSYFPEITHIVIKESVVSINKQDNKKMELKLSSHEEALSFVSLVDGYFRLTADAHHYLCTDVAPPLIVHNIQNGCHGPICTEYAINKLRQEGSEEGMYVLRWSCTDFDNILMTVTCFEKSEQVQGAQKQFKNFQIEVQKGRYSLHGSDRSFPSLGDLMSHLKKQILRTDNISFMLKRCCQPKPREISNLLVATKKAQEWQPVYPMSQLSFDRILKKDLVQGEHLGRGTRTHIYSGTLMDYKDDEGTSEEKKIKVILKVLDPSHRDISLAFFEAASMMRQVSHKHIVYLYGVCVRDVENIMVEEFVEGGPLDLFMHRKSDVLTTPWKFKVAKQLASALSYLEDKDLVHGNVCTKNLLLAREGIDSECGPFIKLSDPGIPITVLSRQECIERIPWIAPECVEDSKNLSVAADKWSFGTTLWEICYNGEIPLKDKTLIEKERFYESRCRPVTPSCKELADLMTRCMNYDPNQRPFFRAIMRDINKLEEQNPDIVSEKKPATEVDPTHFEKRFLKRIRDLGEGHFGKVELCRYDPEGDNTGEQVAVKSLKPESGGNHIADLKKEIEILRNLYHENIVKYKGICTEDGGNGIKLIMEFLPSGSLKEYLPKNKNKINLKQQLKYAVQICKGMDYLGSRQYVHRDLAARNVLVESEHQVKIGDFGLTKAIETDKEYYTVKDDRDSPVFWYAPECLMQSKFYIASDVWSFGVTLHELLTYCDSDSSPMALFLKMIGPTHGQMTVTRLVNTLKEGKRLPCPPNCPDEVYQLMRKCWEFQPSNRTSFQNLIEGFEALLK
T2 sequence (O60674 whole entry): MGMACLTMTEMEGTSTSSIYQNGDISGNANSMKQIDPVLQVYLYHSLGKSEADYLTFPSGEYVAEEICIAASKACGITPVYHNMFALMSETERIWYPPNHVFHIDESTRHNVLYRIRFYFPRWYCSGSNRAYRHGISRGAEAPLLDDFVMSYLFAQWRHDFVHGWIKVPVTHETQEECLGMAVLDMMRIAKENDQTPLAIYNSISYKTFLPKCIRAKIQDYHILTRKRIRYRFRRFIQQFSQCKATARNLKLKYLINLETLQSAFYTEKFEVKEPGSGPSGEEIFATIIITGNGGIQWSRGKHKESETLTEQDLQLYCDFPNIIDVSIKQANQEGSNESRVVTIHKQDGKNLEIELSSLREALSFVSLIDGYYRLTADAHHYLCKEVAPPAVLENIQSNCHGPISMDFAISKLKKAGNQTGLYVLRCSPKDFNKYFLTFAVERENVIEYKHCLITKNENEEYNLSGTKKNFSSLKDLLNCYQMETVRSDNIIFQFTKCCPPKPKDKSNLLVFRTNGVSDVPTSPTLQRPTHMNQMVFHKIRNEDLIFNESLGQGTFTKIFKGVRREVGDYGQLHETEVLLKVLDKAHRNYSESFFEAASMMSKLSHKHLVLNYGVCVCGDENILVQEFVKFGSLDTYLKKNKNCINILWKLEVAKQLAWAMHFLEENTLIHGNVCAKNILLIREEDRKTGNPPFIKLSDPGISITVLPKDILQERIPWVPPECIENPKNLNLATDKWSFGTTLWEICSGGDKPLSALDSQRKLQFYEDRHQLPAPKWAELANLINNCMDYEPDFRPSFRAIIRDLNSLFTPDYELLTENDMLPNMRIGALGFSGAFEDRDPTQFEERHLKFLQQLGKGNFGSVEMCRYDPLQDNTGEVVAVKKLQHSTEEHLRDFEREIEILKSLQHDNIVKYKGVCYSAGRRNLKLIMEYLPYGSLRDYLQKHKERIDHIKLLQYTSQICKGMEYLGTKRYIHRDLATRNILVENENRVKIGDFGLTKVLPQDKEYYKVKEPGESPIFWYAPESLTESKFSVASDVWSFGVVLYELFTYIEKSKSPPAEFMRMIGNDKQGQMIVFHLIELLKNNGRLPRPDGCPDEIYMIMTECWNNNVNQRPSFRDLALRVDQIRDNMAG
T3 sequence (P29597 whole entry): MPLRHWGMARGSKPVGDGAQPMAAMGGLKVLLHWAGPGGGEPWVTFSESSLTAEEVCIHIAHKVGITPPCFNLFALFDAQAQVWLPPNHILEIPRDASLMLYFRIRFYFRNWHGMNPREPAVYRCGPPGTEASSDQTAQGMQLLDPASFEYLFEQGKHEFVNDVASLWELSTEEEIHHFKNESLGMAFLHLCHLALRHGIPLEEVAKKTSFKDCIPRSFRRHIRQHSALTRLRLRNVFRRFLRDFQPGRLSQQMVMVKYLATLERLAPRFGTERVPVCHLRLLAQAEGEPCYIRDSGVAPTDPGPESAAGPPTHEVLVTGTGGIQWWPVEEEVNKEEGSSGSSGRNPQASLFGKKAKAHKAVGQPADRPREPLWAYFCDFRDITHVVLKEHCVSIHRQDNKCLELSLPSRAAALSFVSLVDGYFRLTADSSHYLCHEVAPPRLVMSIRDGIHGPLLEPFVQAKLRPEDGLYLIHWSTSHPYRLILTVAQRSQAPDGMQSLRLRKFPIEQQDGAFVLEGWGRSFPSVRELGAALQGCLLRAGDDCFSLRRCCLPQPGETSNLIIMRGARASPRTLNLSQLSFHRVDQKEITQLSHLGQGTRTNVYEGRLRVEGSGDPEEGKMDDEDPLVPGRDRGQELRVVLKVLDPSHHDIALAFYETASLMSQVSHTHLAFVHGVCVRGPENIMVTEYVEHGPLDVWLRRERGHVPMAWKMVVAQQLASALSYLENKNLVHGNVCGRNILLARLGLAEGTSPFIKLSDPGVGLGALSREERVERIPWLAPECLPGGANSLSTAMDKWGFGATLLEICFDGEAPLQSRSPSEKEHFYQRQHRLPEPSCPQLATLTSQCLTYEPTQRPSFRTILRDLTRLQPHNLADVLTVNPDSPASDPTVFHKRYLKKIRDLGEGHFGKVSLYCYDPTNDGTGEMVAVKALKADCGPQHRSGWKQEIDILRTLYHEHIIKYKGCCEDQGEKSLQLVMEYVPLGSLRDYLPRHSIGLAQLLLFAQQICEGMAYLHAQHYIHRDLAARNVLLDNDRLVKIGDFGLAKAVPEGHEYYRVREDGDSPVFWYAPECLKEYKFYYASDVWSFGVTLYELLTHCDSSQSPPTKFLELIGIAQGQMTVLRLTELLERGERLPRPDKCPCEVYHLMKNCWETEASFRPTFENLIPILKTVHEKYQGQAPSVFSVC

Structure (SMILES): CN(C)C/C=C/C(=O)N1CC2(CCC2Oc2cc(-c3ccc(O)cc3)cc3[nH]ncc23)C1 (stereo not drawn) [Compound 12-53]
- Ki (JAK1): > 100 nM
- Ki (JAK2): 1 to 10 nM
- Ki (Tyk2): > 100 nM
- IC50 [1, 2]: < 31.6 nM
- Ki (JAK3): 0.1 to 1 nM
- JAK3 (pKi)-JAK1 (pKi) (JAK3; [3]): B (a value of 2.3 to 3)

Structure (SMILES): C=CC(=O)N1CC[C@H](Oc2cc(-c3c(F)cc(O)cc3F)cc3[nH]ncc23)C1 [Compound 1-18]
- Ki (JAK1): 10 to 100 nM
- Ki (JAK2): 10 to 100 nM
- Ki (Tyk2): > 100 nM
- IC50 [1, 4]: < 31.6 nM
- Ki (JAK3): 0.1 to 1 nM
- JAK3 (pKi)-JAK1 (pKi) (JAK3; [5]): B (a value of 2.3 to 3)

Structure (SMILES): C=CC(=O)N1CC[C@H](Nc2cc(-c3ccc(O)cc3)cc3[nH]ncc23)[C@H](C)C1 [Compound 12-16]
- Ki (JAK1): 10 to 100 nM
- Ki (JAK2): 1 to 10 nM
- Ki (Tyk2): > 100 nM
- IC50 [1, 2]: < 31.6 nM
- Ki (JAK3): 0.1 to 1 nM
- JAK3 (pKi)-JAK1 (pKi) (JAK3; [3]): B (a value of 2.3 to 3)

Structure (SMILES): C=CC(=O)N1CCC(C)(Nc2nc(-c3ccc(O)c(Cl)c3)cc3[nH]ncc23)CC1 [Compound 7-14]
- JAK 1 (pKi) (JAK1): E (a pKi value of 7 or below (Ki of 100 nM or above))
- JAK 2 (pKi) (JAK2): D (a pKi value between 7 and 8 (Ki between 100 nM and 10 nM))
- Tyk 2 (pKi) (Tyk2): E (a pKi value of 7 or below (Ki of 100 nM or above))
- Tall-1 (pIC50) ([1]; IL-2 stimulated pSTAT5, Tall-1 T cells): A (a pIC50 value≥7.5 (IC50≤32 nM))
- JAK 3 (pKi) (JAK3): B (a pKi value between 9 and 10 (Ki between 1 nM and 0.1 nM))
- JAK3 (pKi)-JAK1 (pKi) (JAK3; [3]): B (a value of 2.3 to 3)

Structure (SMILES): C=CC(=O)N1CCC(Cc2cc(-c3ccc(O)cc3)cc3[nH]ncc23)CC1 [Compound 14, 1-(4-((6-(4-hydroxyphenyl)-1H-indazol-4-yl)methyl)piperidin-1-yl)prop-2-en-1-one]
- Ki (JAK1): > 100 nM
- Ki (JAK2): > 100 nM
- Ki (Tyk2): > 100 nM
- IC50 [1, 4]: 31.6 to 200 nM
- Ki (JAK3): 0.1 to 1 nM
- JAK3 (pKi)-JAK1 (pKi) (JAK3; [5]): A (a value of 3 or above)

Structure (SMILES): CN(C)C/C=C/C(=O)N1CC(C)(COc2nc(-c3ccc(O)c(Cl)c3)cc3[nH]ncc23)C1 [Compound 3-95]
- JAK 1 (pKi) (JAK1): E (a pKi value of 7 or below (Ki of 100 nM or above))
- JAK 2 (pKi) (JAK2): E (a pKi value of 7 or below (Ki of 100 nM or above))
- Tyk 2 (pKi) (Tyk2): E (a pKi value of 7 or below (Ki of 100 nM or above))
- Tall-1 (pIC50) [1, 6]: A (a pIC50 value≥7.5 (IC50≤32 nM))
- JAK 3 (pKi) (JAK3): A (a pKi value≥10 (Ki≤0.1 nM))
- JAK3 (pKi)-JAK1 (pKi) (JAK3; [5]): A (a value of 3 or above)

Structure (SMILES): C=CC(=O)N1CC(C(=O)Nc2cc(-c3ccc(O)cc3)cc3[nH]ncc23)C1 [Compound 12-46]
- Ki (JAK1): > 100 nM
- Ki (JAK2): 10 to 100 nM
- Ki (Tyk2): > 100 nM
- IC50 [1, 2]: 31.6 to 200 nM
- Ki (JAK3): < 0.1 nM
- JAK3 (pKi)-JAK1 (pKi) (JAK3; [3]): A (a value of 3 or above)

Structure (SMILES): C=CC(=O)N1CCC(F)(C(=O)Nc2cc(-c3ccc(O)cc3)cc3[nH]ncc23)CC1 [Compound 12-58]
- Ki (JAK1): > 100 nM
- Ki (JAK2): 10 to 100 nM
- Ki (Tyk2): > 100 nM
- IC50 [1, 2]: 31.6 to 200 nM
- Ki (JAK3): < 0.1 nM
- JAK3 (pKi)-JAK1 (pKi) (JAK3; [3]): A (a value of 3 or above)

Structure (SMILES): C=CC(=O)N1CC[C@H](Oc2cc(-c3ccc(O)cc3F)cc3[nH]ncc23)C1 [Compound 1-17]
- Ki (JAK1): > 100 nM
- Ki (JAK2): 10 to 100 nM
- Ki (Tyk2): > 100 nM
- IC50 [1, 4]: < 31.6 nM
- Ki (JAK3): 0.1 to 1 nM
- JAK3 (pKi)-JAK1 (pKi) (JAK3; [5]): A (a value of 3 or above)

Structure (SMILES): CN(C)C/C=C/C(=O)N1CC(CN(C)c2cc(-c3ccc(O)c(F)c3)cc3[nH]ncc23)C1 [Compound 4-6]
- JAK 1 (pKi) (JAK1): E (a pKi value of 7 or below (Ki of 100 nM or above))
- JAK 2 (pKi) (JAK2): E (a pKi value of 7 or below (Ki of 100 nM or above))
- Tyk 2 (pKi) (Tyk2): E (a pKi value of 7 or below (Ki of 100 nM or above))
- Tall-1 (pIC50) [1, 6]: B (a pIC50 value between 6.7 (included) and 7.5 (IC50 between 200 nM and 32 nM))
- JAK 3 (pKi) (JAK3): B (a pKi value between 9 and 10 (Ki between 1 nM and 0.1 nM))
- JAK3 (pKi)-JAK1 (pKi) (JAK3; [5]): A (a value of 3 or above)

Structure (SMILES): C=CC(=O)N1CC[C@H](Oc2cc(-c3ccc(O)c(F)c3Cl)cc3[nH]ncc23)C1 [Compound 1-15]
- Ki (JAK1): > 100 nM
- Ki (JAK2): > 100 nM
- Ki (Tyk2): > 100 nM
- IC50 [1, 4]: 31.6 to 200 nM
- Ki (JAK3): < 0.1 nM
- JAK3 (pKi)-JAK1 (pKi) (JAK3; [5]): A (a value of 3 or above)

Structure (SMILES): CCC1(COc2cc(-c3ccc(O)c(Cl)c3)cc3[nH]ncc23)CN(C(=O)/C=C/CN(C)C)C1 [Compound 3-15]
- Ki (JAK1): > 100 nM
- Ki (JAK2): > 100 nM
- Ki (Tyk2): > 100 nM
- IC50 [1, 4]: 31.6 to 200 nM
- Ki (JAK3): < 0.1 nM
- JAK3 (pKi)-JAK1 (pKi) (JAK3; [5]): A (a value of 3 or above)

Structure (SMILES): C=CC(=O)N1CC(COc2cc(-c3ccc(O)c(Cl)c3)cc3[nH]ncc23)(OC)C1 [Compound 3-73]
- JAK 1 (pKi) (JAK1): E (a pKi value of 7 or below (Ki of 100 nM or above))
- JAK 2 (pKi) (JAK2): E (a pKi value of 7 or below (Ki of 100 nM or above))
- Tyk 2 (pKi) (Tyk2): E (a pKi value of 7 or below (Ki of 100 nM or above))
- Tall-1 (pIC50) [1, 6]: A (a pIC50 value≥7.5 (IC50≤32 nM))
- JAK 3 (pKi) (JAK3): A (a pKi value≥10 (Ki≤0.1 nM))
- JAK3 (pKi)-JAK1 (pKi) (JAK3; [5]): A (a value of 3 or above)
